Measurements reported in patent US20210047324A1 (Aptinyx Inc., priority 2018, published 2021).

Legend:
NMDAR2A = target: T1, NMDAR2A (Homo sapiens, UniProt Q12879); experiment: NMDAR agonist assay, [3H]MK-801 binding, NMDAR2A expressing HEK cell membranes; assay type: biochemical; parameters: key to NMDAR2A B: log EC50: 0=−; ≥1×10^−9 M (e.g., −8)=+; <1×10^−9 M (e.g., −10)=++; conditions: 50 μM glutamate; for Emax: 0.25 h, read-out: NMDAR2A A: % maximal [3H]MK-801 binding relative to 1 mM glycine; for Emax / NMDAR2A A: % maximal [3H]MK-801 binding relative to 1 mM glycine: relative to 1 mM glycine; for EC50: read-out: NMDAR2A B: log EC50 (converted)
T1 construct: expressed in transfected cells; host or cells: HEK cells (membrane extract)
T1 sequence (Q12879 23-1464, species assumed, other chains not shown): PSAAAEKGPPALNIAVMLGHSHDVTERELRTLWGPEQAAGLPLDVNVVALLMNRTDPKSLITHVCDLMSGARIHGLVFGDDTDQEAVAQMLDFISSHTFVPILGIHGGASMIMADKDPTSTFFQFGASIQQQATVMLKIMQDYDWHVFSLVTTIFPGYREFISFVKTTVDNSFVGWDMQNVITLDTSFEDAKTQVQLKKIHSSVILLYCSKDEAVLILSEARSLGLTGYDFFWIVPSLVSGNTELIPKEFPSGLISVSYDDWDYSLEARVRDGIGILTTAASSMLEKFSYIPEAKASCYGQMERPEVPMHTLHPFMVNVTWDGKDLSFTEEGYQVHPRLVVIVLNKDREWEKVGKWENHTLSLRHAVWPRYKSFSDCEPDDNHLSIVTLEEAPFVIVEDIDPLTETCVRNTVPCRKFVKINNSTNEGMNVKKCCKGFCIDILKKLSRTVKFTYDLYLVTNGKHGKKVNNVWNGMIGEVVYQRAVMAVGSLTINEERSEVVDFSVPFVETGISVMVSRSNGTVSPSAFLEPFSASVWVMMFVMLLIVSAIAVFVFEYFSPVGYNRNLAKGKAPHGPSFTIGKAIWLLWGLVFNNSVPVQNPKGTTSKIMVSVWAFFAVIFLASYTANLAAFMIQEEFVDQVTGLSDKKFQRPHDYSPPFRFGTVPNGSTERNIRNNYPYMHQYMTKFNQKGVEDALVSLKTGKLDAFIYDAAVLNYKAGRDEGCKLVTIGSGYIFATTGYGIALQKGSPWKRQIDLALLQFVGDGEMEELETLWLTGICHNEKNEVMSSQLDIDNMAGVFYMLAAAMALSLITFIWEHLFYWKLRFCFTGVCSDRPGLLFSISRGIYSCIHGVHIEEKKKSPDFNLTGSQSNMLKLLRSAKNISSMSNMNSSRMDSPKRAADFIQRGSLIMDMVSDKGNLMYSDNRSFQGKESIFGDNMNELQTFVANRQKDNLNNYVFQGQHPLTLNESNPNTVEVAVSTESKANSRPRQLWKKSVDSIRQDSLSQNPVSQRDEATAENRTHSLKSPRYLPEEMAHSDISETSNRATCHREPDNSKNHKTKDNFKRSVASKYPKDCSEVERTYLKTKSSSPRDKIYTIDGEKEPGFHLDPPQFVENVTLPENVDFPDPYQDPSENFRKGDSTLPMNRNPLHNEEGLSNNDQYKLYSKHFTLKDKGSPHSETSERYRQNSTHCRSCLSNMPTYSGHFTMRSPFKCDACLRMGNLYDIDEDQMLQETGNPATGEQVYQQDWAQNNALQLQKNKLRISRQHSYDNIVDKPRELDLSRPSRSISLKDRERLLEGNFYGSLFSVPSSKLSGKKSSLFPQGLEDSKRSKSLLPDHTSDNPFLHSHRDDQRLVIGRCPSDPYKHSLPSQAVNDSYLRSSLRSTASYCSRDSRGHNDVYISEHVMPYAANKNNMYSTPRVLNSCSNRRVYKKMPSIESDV
Method: (§1) Assays were conducted as described by Moskal et al., “GLYX-13: a monoclonal antibody-derived peptide that acts as an N-methyl-D-aspartate receptor modulator,” Neuropharmacology, 49, 1077-87, 2005. These studies were designed to determine if the test compounds act to facilitate NMDAR activation in NMDAR2A, NMDAR2B, NMDAR2C or NMDAR2D expressing HEK cell membranes as measured by increases in [^3H]MK-801 binding.
(§2) In the assay, 300 μg of NMDAR expressing HEK cell membrane extract protein was preincubated for 15 minutes at […] in the presence of saturating concentrations of glutamate (50 μM) and varying concentrations of test compound (1×10^−15M-1×10^−7M), or 1 mM glycine. Following the addition of 0.3 μCi of [3H]MK-801 (22.5 Ci/mmol), reactions were again incubated for 15 minutes at 25° C. (nonequilibrium conditions). Bound and free [3H]MK-801 were separated via rapid filtration using a Brandel apparatus.
(§3) In analyzing the data, the DPM (disintegrations per minute) of [3H]MK-801 remaining on the filter were measured for each concentration of test compound or for 1 mM glycine. The DPM values for each concentration of a ligand (N=2) were averaged. The baseline value was determined from the best fit curve of the DPM values modeled using the GraphPad program and the log(agonist) vs. response (three parameters) algorithm was then subtracted from all points in the dataset. The % maximal [^3H]MK-801 binding was then calculated relative to that of 1 mM glycine: all baseline subtracted DPM values were divided by the average value for 1 mM glycine. The EC50 and % maximal activity were then obtained from the best fit curve of the % maximal [3H]MK-801 binding data modelled using the GraphPad program and the log(agonist) vs. response (three parameters) algorithm.
(§4) The tables below summarize the results for the wild type […] NMDAR2A, NMDAR2B, NMDAR2C, and NMDAR2D, and whether the compound is not an agonist (−), is an agonist (+), or is a strong agonist (++), where column A is based on the % maximal [3H]MK-801 binding relative to 1 mM glycine (−=0; <100%=+; and >100%=++); and column B is based on log EC50 values (0=−; ≥1×10^−9 M (e.g., −8)=+; and <1×10^−9 M (e.g., −10)=++).

NMDAR2B = target: T2, NMDAR2B (Homo sapiens, UniProt Q13224); experiment: NMDAR agonist assay, [3H]MK-801 binding, NMDAR2B expressing HEK cell membranes; assay type: biochemical; parameters: key to NMDAR2B B: log EC50: 0=−; ≥1×10^−9 M (e.g., −8)=+; <1×10^−9 M (e.g., −10)=++; conditions: 50 μM glutamate; for EC50: read-out: NMDAR2B B: log EC50 (converted); for Emax / NMDAR2B A: % maximal [3H]MK-801 binding relative to 1 mM glycine: relative to 1 mM glycine; for Emax: read-out: NMDAR2B A: % maximal [3H]MK-801 binding relative to 1 mM glycine
T2 construct: expressed in transfected cells; host or cells: HEK cells (membrane extract)
T2 sequence (Q13224 27-1484, species assumed, other chains not shown): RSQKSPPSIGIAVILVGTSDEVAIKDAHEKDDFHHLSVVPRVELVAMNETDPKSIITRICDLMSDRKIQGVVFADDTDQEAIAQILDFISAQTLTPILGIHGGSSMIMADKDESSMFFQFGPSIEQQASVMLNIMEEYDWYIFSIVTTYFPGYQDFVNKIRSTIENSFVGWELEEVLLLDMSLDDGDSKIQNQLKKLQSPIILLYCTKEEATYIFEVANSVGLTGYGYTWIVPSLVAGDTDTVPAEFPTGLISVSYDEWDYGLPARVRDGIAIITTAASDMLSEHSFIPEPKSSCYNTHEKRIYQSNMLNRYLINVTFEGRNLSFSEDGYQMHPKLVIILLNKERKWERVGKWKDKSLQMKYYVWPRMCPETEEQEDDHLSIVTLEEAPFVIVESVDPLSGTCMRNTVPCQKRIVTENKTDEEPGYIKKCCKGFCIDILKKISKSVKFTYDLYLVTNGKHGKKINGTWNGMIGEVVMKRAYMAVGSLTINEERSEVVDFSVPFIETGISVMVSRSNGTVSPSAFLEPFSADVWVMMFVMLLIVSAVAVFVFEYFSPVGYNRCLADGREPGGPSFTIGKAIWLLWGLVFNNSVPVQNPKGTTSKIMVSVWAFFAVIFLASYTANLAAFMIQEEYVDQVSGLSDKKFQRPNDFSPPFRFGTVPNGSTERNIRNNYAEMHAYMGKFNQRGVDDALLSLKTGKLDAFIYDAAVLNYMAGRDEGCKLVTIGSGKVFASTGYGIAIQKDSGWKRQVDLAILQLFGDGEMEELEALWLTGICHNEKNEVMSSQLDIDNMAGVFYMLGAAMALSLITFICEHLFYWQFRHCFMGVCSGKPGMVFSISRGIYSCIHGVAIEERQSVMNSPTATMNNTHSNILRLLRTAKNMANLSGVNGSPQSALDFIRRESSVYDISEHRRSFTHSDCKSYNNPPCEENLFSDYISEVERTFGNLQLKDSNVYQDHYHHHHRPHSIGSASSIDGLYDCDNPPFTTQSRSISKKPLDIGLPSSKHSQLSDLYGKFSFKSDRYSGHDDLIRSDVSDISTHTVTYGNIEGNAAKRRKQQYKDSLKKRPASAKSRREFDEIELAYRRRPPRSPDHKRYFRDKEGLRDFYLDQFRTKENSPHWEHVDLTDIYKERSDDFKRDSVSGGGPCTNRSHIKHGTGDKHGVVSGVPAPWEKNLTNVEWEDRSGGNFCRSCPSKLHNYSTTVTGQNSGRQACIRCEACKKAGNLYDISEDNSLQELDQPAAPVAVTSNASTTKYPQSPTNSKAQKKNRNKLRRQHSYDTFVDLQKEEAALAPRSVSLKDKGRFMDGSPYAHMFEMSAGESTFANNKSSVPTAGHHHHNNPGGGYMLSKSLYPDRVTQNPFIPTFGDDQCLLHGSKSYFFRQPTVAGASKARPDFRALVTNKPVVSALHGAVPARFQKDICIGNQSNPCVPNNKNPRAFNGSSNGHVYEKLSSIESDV
Method: as §1, §2, §3, §4

| EC50 (NMDAR2B) [nM] | Emax (NMDAR2B) [%] | EC50 (NMDAR2A) [nM] | NMDAR2A A: % maximal [3H]MK-801 binding relative to 1 mM glycine (NMDAR2A) | NMDAR2B A: % maximal [3H]MK-801 binding relative to 1 mM glycine (NMDAR2B) | NMDAR2B B: log EC50 (NMDAR2B) | SMILES | NMDAR2A B: log EC50 (NMDAR2A) | Emax (NMDAR2A) [%] |
| --- | --- | --- | --- | --- | --- | --- | --- | --- |
| < 1 |  | < 1 | + (<100%=+) | + (<100%=+) |  | CC(C)C(=O)N1CCC2(CCCN2C(=O)C(C)C)C1=O (single isomer, unassigned) [GU-2, 1,1′-(6-oxo-1,7-diazaspiro[4.4]nonane-1,7-diyl)bis(2-methylpropan-1-one)] |  |  |
|  | 0 |  | − (−=0) |  | − | CN1CC=CCC2(CCCN2C)C1=O (stereo not shown) [listing 1 of 2 here] | − |  |
|  |  | < 1 |  |  |  | CC(C)(C)OC(=O)N1CCCCCC12CNC2=O (single isomer, unassigned) [EI-2, tert-butyl 1-oxo-2,5-diazaspiro[3.6]decane-5-carboxylate] |  |  |
|  |  | < 1 | + (<100%=+) | − (−=0) | − | CN1CC=CCC2(CCCN2C)C1=O (stereo not shown) [listing 2 of 2 here] |  |  |
| < 1 | < 100 | < 1 |  |  |  | CC(=O)N1CCCC12CC=CCNC2=O (single isomer, unassigned) [GG-1, 1-acetyl-1,7-diazaspiro[4.6]undec-9-en-6-one] |  | < 100 |
| < 1 |  | < 1 |  |  |  | O=C1NCCCCC12CCCCN2 (single isomer, unassigned) [BA, 1,8-diazaspiro[5.6]dodecan-7-one] |  |  |
| ≥ 1 |  | < 1 |  |  |  | CN1CC=CCC2(CCCN2Cc2ccccc2)C1=O (single isomer, unassigned) [GT-2, 1-benzyl-7-methyl-1,7-diazaspiro[4.6]undec-9-en-6-one] |  |  |
| < 1 | < 100 | < 1 |  |  |  | O=C1NCC=CCC12CC(F)(F)CN2 (single isomer, unassigned) [GL-1, 3,3-difluoro-1,7-diazaspiro[4.6]undec-9-en-6-one] |  | < 100 |

| SMILES | EC50 (NMDAR2B) [nM] | Emax (NMDAR2B) [%] | EC50 (NMDAR2A) [nM] | NMDAR2A A: % maximal [3H]MK-801 binding relative to 1 mM glycine (NMDAR2A) | NMDAR2B A: % maximal [3H]MK-801 binding relative to 1 mM glycine (NMDAR2B) | NMDAR2B B: log EC50 (NMDAR2B) | NMDAR2A B: log EC50 (NMDAR2A) | Emax (NMDAR2A) [%] |
| --- | --- | --- | --- | --- | --- | --- | --- | --- |
| O=C1NCCCC12CCCN2 (stereo not shown) [EU-1, 1,7-diazaspiro[4.5]decan-6-one] | < 1 | < 100 |  |  |  |  | − | 0 |
| O=C1NCCCCC12CCCNC2 (single isomer, unassigned) [CG, 2,8-diazaspiro[5.6]dodecan-7-one] | < 1 |  | < 1 |  |  |  |  |  |
| O=C1NCCCC12CCCNC2 (single isomer, unassigned) [CD, 2,8-diazaspiro[5.5]undecan-1-one] | < 1 | < 100 | < 1 |  |  |  |  | < 100 |
| O=C1NCCCC12CCCNC2 (single isomer, unassigned) [CE, 2,8-diazaspiro[5.5]undecan-1-one] | < 1 |  | < 1 |  |  |  |  |  |
